# Reference: paper PMC5601625, “Defining a therapeutic window for kinase inhibitors in leukemia to avoid neutropenia” (Oncotarget, 2017)
# “Also recorded” adds a separate entry of the source. Read-outs that look alike come from different tables or passages of the source.
# How the values were obtained:
# Test in all cases: Cell Titer Glo cell viability assay, 48 h
# Format in all cases: cell-based, human
# HL-60 = conditions: for anti-proliferative activity in HL-60 cells: dose-response, Cell Titer Glo; for IC50: read-out: IC50 of inhibitors on cell lines, m (mean)
# Method: (§1) The activity of the kinase inhibitor collection against a panel of human leukemia cell lines was determined in cell viability assays run over 48 h using the Cell Titer Glo reagent.
# (§2) Figure 1 Effects of kinase inhibition on the proliferation of leukemia cells A. Human leukemia cell lines were treated with duplicate serial dilutions of kinase inhibitors and the effect on cell viability was determined by Cell Titer Glo assay after 48 hours. […] HL-60 cells were treated with serial dilutions of mTor/PI3K B. and MEK C. inhibitors and the effect on cell viability was determined after 48 hours. Data shown is the mean ± SEM of 3 independent experiments.
# (§3) Leukemia and lymphoma cell lines were grown in RPMI containing 10% FCS. […] Cell lines are routinely tested for mycoplasma and genotyped by short tandem repeating (STR) profiling to confirm identity.
# (§4) Compounds were obtained from SynMedChem and dissolved at […] in DMSO. Serial 2-fold dilutions of each compound were prepared in DMSO using a liquid handling robot (Janus, Perkin Elmer). Each dilution (100nL) was transferred to duplicate tissue culture plates containing 50 μL of media containing 5 × 10^3 cells using a 384 well pin tool. Cells were incubated for 48 h and cell viability was determined using Cell Titer Glow reagents as described by the manufacturer (Promega). Data was acquired using a luminescent plate reader (Envision, Perkin Elmer) and analysed using Activity Base (IDBS, Guilford, UK) and visualised using Spotfire (TIBCO, Palo Alto, CA) as described previously. Each cell line was assayed in independent experiments on at least two occasions. […] Serial 2-fold dilutions of each compound were prepared in media containing 0.2% DMSO and 50 μl of each dilution was added to 10^4 cells in 50 μl of media. Cells were incubated for 48 h and cell viability was determined using Cell Titer Glow assay as described above.
# U937 = conditions: read-out: IC50 of inhibitors on cell lines, m (mean)
# Method: as §1, §2, §3, §4
# MV4;11 = conditions: read-out: IC50 of inhibitors on cell lines, m (mean)
# Method: as §1, §2, §3, §4
# EOL-1 = conditions: read-out: IC50 of inhibitors on cell lines, m (mean)
# Method: as §1, §2, §3, §4
# K562 = conditions: read-out: IC50 of inhibitors on cell lines, m (mean)
# Method: as §1, §2, §3, §4
# OCI-AML3 = conditions: read-out: IC50 of inhibitors on cell lines, m (mean)
# Method: as §1, §2, §3, §4
# HEL.92.1.7 = conditions: read-out: IC50 of inhibitors on cell lines, m (mean)
# Method: as §1, §2, §3, §4
# MOLT4 = conditions: read-out: IC50 of inhibitors on cell lines, m (mean)
# Method: as §1, §2, §3, §4
# KU-812 = conditions: read-out: IC50 of inhibitors on cell lines, m (mean)
# Method: as §1, §2, §3, §4
# THP-1 = conditions: read-out: IC50 of inhibitors on cell lines, m (mean)
# Method: as §1, §2, §3, §4
# JURKAT = conditions: read-out: IC50 of inhibitors on cell lines, m (mean)
# Method: as §1, §2, §3, §4
# MEG-01 = conditions: read-out: IC50 of inhibitors on cell lines, m (mean)
# Method: as §1, §2, §3, §4
# [1] = 48 h, mean of 2 independent experiments, 0 = less than 10 nM, cell line not given
# [2] = Homo sapiens, U-937, 48 h, mean of 2 independent experiments, 0 = less than 10 nM, cell line not given
# [3] = Homo sapiens, 48 h, mean of 2 independent experiments, 0 = less than 10 nM, cell line not given
# [4] = Homo sapiens, EOL1, 48 h, mean of 2 independent experiments, 0 = less than 10 nM, cell line not given
# [5] = Homo sapiens, OCI-AML-3, 48 h, mean of 2 independent experiments, 0 = less than 10 nM, cell line not given
# [6] = Homo sapiens, MOLT-4, 48 h, mean of 2 independent experiments, 0 = less than 10 nM, cell line not given
# [7] = Homo sapiens, KU812, 48 h, mean of 2 independent experiments, 0 = less than 10 nM, cell line not given
Structure (SMILES),IC50 (U937; [1]),IC50 (MV4;11; [1]),IC50 (EOL-1; [1]),IC50 (K562; [1]),IC50 (OCI-AML3; [1]),IC50 (HEL.92.1.7; [1]),IC50 (MOLT4; [1]),IC50 (KU-812; [1]),IC50 (THP-1; [1]),IC50 (U937; [2]),IC50 (MV4;11; [3]),IC50 (K562; [3]),IC50 (OCI-AML3; [5]),IC50 (HEL.92.1.7; [3]),IC50 (MOLT4; [6]),IC50 (KU-812; [7]),IC50 (THP-1; [3]),IC50 (HL-60; [3]),IC50 (JURKAT; [3]),IC50 (MEG-01; [3]),other results
O=C(NOCC1CC1)c1ccc(F)c(F)c1Nc1ccc(I)cc1Cl [CI-1040],,,,,,,,,,,,,,,,,,,,,anti-proliferative activity in HL-60 cells (HL-60; 48 h): potent activity selectively against the HL-60 cell line; also recorded: selective activity
CS(=O)(=O)N1CCN(Cc2cc3nc(-c4cccc5[nH]ncc45)nc(N4CCOCC4)c3s2)CC1 [GDC-0941],,,,,,,,,,,,,,,,,,,,,anti-proliferative activity in HL-60 cells (HL-60; 48 h): significant anti-proliferative activity
CC(=O)Nc1cccc(-n2c(=O)n(C3CC3)c(=O)c3c(Nc4ccc(I)cc4F)n(C)c(=O)c(C)c32)c1 [GSK-1120212],,,,,,,,,,,,,,,,,,,,,anti-proliferative activity in HL-60 cells (HL-60; 48 h): selective activity
O=C(NOC[C@H](O)CO)c1ccc(F)c(F)c1Nc1ccc(I)cc1F [PD0325901],,,,,,,,,,,,,,,,,,,,,anti-proliferative activity in HL-60 cells (HL-60; 48 h): potent activity selectively against the HL-60 cell line; also recorded: selective activity
CN(c1ccccc1CNc1nc(Nc2ccc3c(c2)CC(=O)N3)ncc1C(F)(F)F)S(C)(=O)=O [PF431396],1.23 µM,0.16 µM,1.52 µM,7.1 µM,2.96 µM,4.07 µM,6.42 µM,5.24 µM,3.66 µM,,,,,,,,,,,,IC50 (HL-60; [1]): 1.64 µM; IC50 (JURKAT; [1]): 3.61 µM; IC50 (MEG-01; [1]): 6.32 µM
COc1ccc(-c2cc3c(C)nc(N)nc3n([C@H]3CC[C@H](OCCO)CC3)c2=O)cn1 [PF-04691502],,,,,,,,,,,,,,,,,,,,,anti-proliferative activity in HL-60 cells (HL-60; 48 h): significant anti-proliferative activity
CC(=O)Nc1ccc([C@H](C)C(=O)Nc2ncc(C(C)C)s2)cc1 [PHA690509],1.05 µM,5.89 µM,5.31 µM,5.98 µM,6.23 µM,2.88 µM,4.68 µM,3.93 µM,5.98 µM,,,,,,,,,,,,IC50 (HL-60; [1]): 2.35 µM; IC50 (JURKAT; [1]): 3.21 µM; IC50 (MEG-01; [1]): 5.39 µM
COc1ccc2c(c1OC)N=C(NC(=O)c1cccnc1)N1CCN=C21 [PIK-90],2.32 µM,6.41 µM,5.09 µM,> 10 µM,0.82 µM,> 10 µM,3.92 µM,> 10 µM,5.41 µM,,,,,,,,,,,,IC50 (HL-60; [1]): 2.24 µM; IC50 (JURKAT; [1]): 9.47 µM; IC50 (MEG-01; [1]): > 10 µM
CC(=O)Nc1nc(C)c(-c2ccc(Cl)c(S(=O)(=O)NCCO)c2)s1 [PIK-93],,,,,,,,,,,,,,,,,,,,,IC50 (U937): 1.29 µM; IC50 (MV4;11): 1.23 µM; IC50 (EOL-1): 0.39 µM; IC50 (K562): 9.98 µM; IC50 (OCI-AML3): 1.8 µM; IC50 (HEL.92.1.7): 8.14 µM; IC50 (MOLT4): 2.95 µM; IC50 (KU-812): > 10 µM; IC50 (THP-1): 7.05 µM; IC50 (HL-60): 2.07 µM; IC50 (JURKAT): 3.4 µM; IC50 (MEG-01): > 10 µM
CN(C)C1CCN(C(=O)c2ccc(NC(=O)Nc3ccc(-c4nc(N5CCOCC5)nc(N5CCOCC5)n4)cc3)cc2)CC1 [PKI-587],,,,,,,,,,,,,,,,,,,,,anti-proliferative activity in HL-60 cells (HL-60; 48 h): significant anti-proliferative activity
CCCS(=O)(=O)Nc1ccc(F)c(C(=O)c2c[nH]c3ncc(Cl)cc23)c1F [PLX4720],,,,,,,,,,8.5 µM,5.6 µM,> 10 µM,> 10 µM,> 10 µM,> 10 µM,0.45 µM,> 10 µM,> 10 µM,9.68 µM,0.84 µM,IC50 (EOL-1; [4]): 4.2 µM
CC(C)[C@H](CO)Nc1nc(Nc2ccc(C(=O)O)c(Cl)c2)c2ncn(C(C)C)c2n1 [Purvalanol B],,,,,,,,,,> 10 µM,9.13 µM,> 10 µM,> 10 µM,> 10 µM,> 10 µM,> 10 µM,> 10 µM,> 10 µM,> 10 µM,> 10 µM,IC50 (EOL-1; [4]): > 10 µM
Cn1c(=O)c(Oc2ccc(F)cc2F)cc2cnc(NC3CCOCC3)nc21 [R1487],> 10 µM,> 10 µM,1.41 µM,> 10 µM,> 10 µM,> 10 µM,> 10 µM,> 10 µM,> 10 µM,,,,,,,,,,,,IC50 (HL-60; [1]): > 10 µM; IC50 (JURKAT; [1]): > 10 µM; IC50 (MEG-01; [1]): > 10 µM
CC1=C(C(=O)Nc2cc3cn[nH]c3cc2F)C(c2ccc(C(F)(F)F)cc2)CC(=O)N1 (stereo not shown) [RHO-15],9.64 µM,7.22 µM,0.19 µM,7.75 µM,> 10 µM,> 10 µM,> 10 µM,2.11 µM,> 10 µM,,,,,,,,,,,,IC50 (HL-60; [1]): > 10 µM; IC50 (JURKAT; [1]): > 10 µM; IC50 (MEG-01; [1]): 5.14 µM
OCCC#Cc1nc(-c2ccc(F)cc2)c(-c2ccncc2)n1CCCc1ccccc1 [RWJ-67657],,,,,,,,,,8.05 µM,8.28 µM,> 10 µM,> 10 µM,> 10 µM,> 10 µM,5.77 µM,> 10 µM,> 10 µM,> 10 µM,> 10 µM,IC50 (EOL-1; [4]): 3.59 µM
Oc1ccc(-c2nc(-c3ccncc3)c(-c3ccc(F)cc3)[nH]2)cc1 [SB202190],,,,,,,,,,6.6 µM,7 µM,> 10 µM,> 10 µM,> 10 µM,> 10 µM,9.36 µM,> 10 µM,> 10 µM,> 10 µM,6.83 µM,IC50 (EOL-1; [4]): 3.68 µM
COc1nccc(-c2c(-c3ccc(F)cc3)ncn2C2CCNCC2)n1 [SB242235],,,,,,,,,,> 10 µM,6.16 µM,> 10 µM,> 10 µM,> 10 µM,> 10 µM,> 10 µM,> 10 µM,> 10 µM,> 10 µM,2.18 µM,IC50 (EOL-1; [4]): 0.51 µM
CN(C)CCOc1ccc(-c2nc(-c3ccncc3)c(-c3ccc4c(c3)CC/C4=N\O)[nH]2)cc1 [SB590885],,,,,,,,,,3.42 µM,2.59 µM,4.06 µM,2.71 µM,5.26 µM,5.93 µM,5.01 µM,3.31 µM,1.41 µM,3.76 µM,5.04 µM,IC50 (EOL-1; [4]): 1.3 µM
NC(=O)c1ccc2[nH]ccc2c1 [SD169],> 10 µM,> 10 µM,5.12 µM,> 10 µM,> 10 µM,> 10 µM,> 10 µM,> 10 µM,> 10 µM,,,,,,,,,,,,IC50 (HL-60; [1]): > 10 µM; IC50 (JURKAT; [1]): > 10 µM; IC50 (MEG-01; [1]): > 10 µM
O=C1NC(=O)/C(=C/c2cccc(C(F)(F)F)c2)S1 [SMI-4a],> 10 µM,9.71 µM,0.13 µM,2.74 µM,> 10 µM,> 10 µM,> 10 µM,4.54 µM,> 10 µM,,,,,,,,,,,,IC50 (HL-60; [1]): > 10 µM; IC50 (JURKAT; [1]): > 10 µM; IC50 (MEG-01; [1]): 5.78 µM
CNC(=O)c1cc(Oc2ccc(NC(=O)Nc3ccc(Cl)c(C(F)(F)F)c3)cc2)ccn1 [Sorafenib],,,,,,,,,,5.33 µM,0.01 µM,9.94 µM,5.46 µM,> 10 µM,> 10 µM,3.79 µM,> 10 µM,5.73 µM,> 10 µM,6.28 µM,
COC(=O)c1ccc2c(c1)NC(=O)/C2=C(\Nc1ccc(N(C)C(=O)CN2CCN(C)CC2)cc1)c1ccccc1 [Vargatef],,,,,,,,,,6.31 µM,0.04 µM,0.59 µM,3.44 µM,2.97 µM,3.69 µM,0.24 µM,5.85 µM,3.55 µM,2.7 µM,0.46 µM,
